Results from patent publication US20180087079A1, “METHODS OF USING CELL-CYCLE INHIBITORS TO MODULATE ONE OR MORE PROPERTIES OF A CELL CULTURE” (AMGEN INC., priority 2013, published 2018).

System: transfected CHO cells expressing recombinant human monoclonal antibody (cell line 1)
Assay: 24-deep well culture, cell line 1: VCD, viability, titer, qP
Assay type: cell-based, Chinese hamster
Conditions: for Titer / VCD / Viability / qP: Cell Line 1
Procedure: Transfected CHO cells expressing a recombinant human monoclonal antibody (mAb) are cultured in 24-deep well plates with seeding density at 1×10^7/mL for five days. At certain time periods, samples of the cultures are taken and evaluated for viable cell density (VCD; expressed in 10^6 cells/mL); percent viability (as determined by trypan blue exclusion); titer of recombinant protein (expressed in grams of protein per liter of culture, or g/L, as determined by Protein A affinity HPLC); qP, or specific productivity (expressed in picograms of recombinant protein per cell per day, or pg/c/d), the presence or absence of high molecular weight substances (usually an indicator of protein aggregation; expressed as % of the total protein); and the relative percentage of Mannose 5, a major intermediate glyco-form that attaches to N297 of the mAb. N-linked glycosylation has an impact on the tertiary structure of the antibody and may affect Fc mediated antibody effector functions. The majority of the human Fc glycans are complex biantennary structures with galactose as the prevalent terminal sugar. Immature glyco-forms, such as high-mannose glycol-forms (Man5-9), are of concern due to potential higher plasma clearance rate (as compared to the clearance rate of complex glycan linked mAbs).
Compounds are further evaluated essentially as described in Example 2 herein. Briefly, transfected CHO cells expressing recombinant human monoclonal antibody (mAb; two different cell lines expressing two different mAb, referred to as cell line 1 and cell line 2) are cultured in 24-deep well plates in the presence or absence of the compounds. At specified time points, samples of the cultures are taken and evaluated for viable cell density (VCD; expressed in 10^6 cells/mL); percent viability (as determined by any method known in the art); titer of recombinant protein (expressed in grams of protein per liter of culture, or g/L, as determined by Protein A affinity HPLC); qP, or specific productivity (expressed in picograms of recombinant protein per cell per day, or pg/c/d). Additional parameters measure include the presence or absence of high molecular weight substances (usually an indicator of protein aggregation; expressed as % of the total protein); and the relative percentage of Mannose 5. For comparison purposes, Compounds A and B, which had been previously tested, were tested again.

OC1CCN(c2ccc(Nc3ncc4c5ccncc5n(C5CCCC5)c4n3)nn2)C1 (stereo not drawn) [Compound G, 1-(6-((9-cyclopentyl-9H-pyrido[4′,3′:4,5]pyrrolo[2,3-d]pyrimidin-2-yl)amino)pyridazin-3-yl)pyrrolidin-3-ol]
Titer (5 microM, D 1): 0.48 g/L
VCD (5 microM, D 1): 11.74 e6/mL
Viability (5 microM, D 1): 95.55%
qP (5 microM, D 1): 40.59 pg/c/d
Titer (5 microM, D 2): 0.66 g/L
VCD (5 microM, D 2): 10.58 e6/mL
Viability (5 microM, D 2): 88.10%
qP (5 microM, D 2): 62.69 pg/c/d
Titer (5 microM, D 3): 0.96 g/L
VCD (5 microM, D 3): 11.02 e6/mL
Viability (5 microM, D 3): 83.82%
qP (5 microM, D 3): 86.81 pg/c/d
Titer (5 microM, D 4): 0.98 g/L
VCD (5 microM, D 4): 13.45 e6/mL
Viability (5 microM, D 4): 82.62%
qP (5 microM, D 4): 72.60 pg/c/d
Titer (10 microM, D 1): 0.47 g/L
VCD (10 microM, D 1): 11.65 e6/mL
Viability (10 microM, D 1): 95.31%
qP (10 microM, D 1): 40.64 pg/c/d
Titer (10 microM, D 2): 0.80 g/L
VCD (10 microM, D 2): 9.95 e6/mL
Viability (10 microM, D 2): 85.90%
qP (10 microM, D 2): 80.10 pg/c/d
Titer (10 microM, D 3): 0.94 g/L
VCD (10 microM, D 3): 10.48 e6/mL
Viability (10 microM, D 3): 81.90%
qP (10 microM, D 3): 89.39 pg/c/d
Titer (10 microM, D 4): 1.08 g/L
VCD (10 microM, D 4): 13.58 e6/mL
Viability (10 microM, D 4): 79.61%
qP (10 microM, D 4): 79.79 pg/c/d
effect on viability (summary of Table 2): minimal effects on viability
growth arrest (summary of Table 2): reasonably sustained growth arrest

CN(C)C1CCN(c2ccc(Nc3ncc4c(n3)C3(C=CC(C)(C)CC3)c3cnccc3-4)nn2)CC1 (stereo not drawn) [Compound H, N-(6-(4-(dimethylamino)piperidin-1-yl)pyridazin-3-yl)-4,4-dimethylspiro[cyclohex[2]ene-1,9′-pyrido[4′,3′:3,4]cyclopenta[1,2-d]pyrimidin]-2′-amine]
Titer (10 microM, D 1): 0.47 g/L
VCD (10 microM, D 1): 11.48 e6/mL
Viability (10 microM, D 1): 95.80%
qP (10 microM, D 1): 41.24 pg/c/d
Titer (10 microM, D 2): 0.69 g/L
VCD (10 microM, D 2): 12.58 e6/mL
Viability (10 microM, D 2): 89.83%
qP (10 microM, D 2): 55.12 pg/c/d
Titer (10 microM, D 3): 0.94 g/L
VCD (10 microM, D 3): 13.36 e6/mL
Viability (10 microM, D 3): 87.77%
qP (10 microM, D 3): 70.60 pg/c/d
Titer (10 microM, D 4): 0.92 g/L
VCD (10 microM, D 4): 16.49 e6/mL
Viability (10 microM, D 4): 86.93%
qP (10 microM, D 4): 56.01 pg/c/d
Titer (20 microM, D 1): 0.47 g/L
VCD (20 microM, D 1): 10.69 e6/mL
Viability (20 microM, D 1): 95.60%
qP (20 microM, D 1): 44.27 pg/c/d
Titer (20 microM, D 2): 0.68 g/L
VCD (20 microM, D 2): 11.08 e6/mL
Viability (20 microM, D 2): 87.70%
qP (20 microM, D 2): 61.66 pg/c/d
Titer (20 microM, D 3): 0.92 g/L
VCD (20 microM, D 3): 10.91 e6/mL
Viability (20 microM, D 3): 82.95%
qP (20 microM, D 3): 83.98 pg/c/d
Titer (20 microM, D 4): 0.97 g/L
VCD (20 microM, D 4): 12.99 e6/mL
Viability (20 microM, D 4): 81.36%
qP (20 microM, D 4): 74.65 pg/c/d

Fc1ccc(-n2c3cnccc3c3cnc(Nc4ccc(N5CCNCC5)cn4)nc32)c(F)c1 [Compound I, 9-(2,4-difluorophenyl)-N-(5-(piperazin-1-yl)pyridin-2-yl)-9H-pyrido[4′,3′:4,5]pyrrolo[2,3-d]pyrimidin-2-amine]
Titer (0.625 microM, D 1): 0.46 g/L
VCD (0.625 microM, D 1): 11.17 e6/mL
Viability (0.625 microM, D 1): 95.26%
qP (0.625 microM, D 1): 41.50 pg/c/d
Titer (0.625 microM, D 2): 0.66 g/L
VCD (0.625 microM, D 2): 11.98 e6/mL
Viability (0.625 microM, D 2): 89.90%
qP (0.625 microM, D 2): 55.10 pg/c/d
Titer (0.625 microM, D 3): 0.89 g/L
VCD (0.625 microM, D 3): 12.81 e6/mL
Viability (0.625 microM, D 3): 85.53%
qP (0.625 microM, D 3): 69.73 pg/c/d
Titer (0.625 microM, D 4): 1.07 g/L
VCD (0.625 microM, D 4): 16.91 e6/mL
Viability (0.625 microM, D 4): 85.47%
qP (0.625 microM, D 4): 63.09 pg/c/d
Titer (1.25 microM, D 1): 0.46 g/L
VCD (1.25 microM, D 1): 10.89 e6/mL
Viability (1.25 microM, D 1): 94.78%
qP (1.25 microM, D 1): 42.55 pg/c/d
Titer (1.25 microM, D 2): 0.66 g/L
VCD (1.25 microM, D 2): 11.16 e6/mL
Viability (1.25 microM, D 2): 88.73%
qP (1.25 microM, D 2): 58.82 pg/c/d
Titer (1.25 microM, D 3): 0.89 g/L
VCD (1.25 microM, D 3): 12.25 e6/mL
Viability (1.25 microM, D 3): 85.80%
qP (1.25 microM, D 3): 72.68 pg/c/d
Titer (1.25 microM, D 4): 1.06 g/L
VCD (1.25 microM, D 4): 15.33 e6/mL
Viability (1.25 microM, D 4): 84.19%
qP (1.25 microM, D 4): 69.35 pg/c/d

CC1(C)CN(c2ccc(Nc3ncc4c5ccncc5n(-c5ccc(F)cc5F)c4n3)nc2)CCN1 [Compound J, 9-(2,4-difluorophenyl)-N-(5-(3,3-dimethylpiperazin-1-yl)pyridin-2-yl)-9H-pyrido[4′,3′:4,5]pyrrolo[2,3-d]pyrimidin-2-amine]
Titer (0.625 microM, D 1): 0.45 g/L
VCD (0.625 microM, D 1): 11.40 e6/mL
Viability (0.625 microM, D 1): 94.94%
qP (0.625 microM, D 1): 39.77 pg/c/d
Titer (0.625 microM, D 2): 0.68 g/L
VCD (0.625 microM, D 2): 14.02 e6/mL
Viability (0.625 microM, D 2): 91.87%
qP (0.625 microM, D 2): 48.50 pg/c/d
Titer (0.625 microM, D 3): 0.88 g/L
VCD (0.625 microM, D 3): 16.48 e6/mL
Viability (0.625 microM, D 3): 90.31%
qP (0.625 microM, D 3): 53.61 pg/c/d
Titer (0.625 microM, D 4): 0.99 g/L
VCD (0.625 microM, D 4): 19.37 e6/mL
Viability (0.625 microM, D 4): 89.98%
qP (0.625 microM, D 4): 51.10 pg/c/d
Titer (1.25 microM, D 1): 0.44 g/L
VCD (1.25 microM, D 1): 11.54 e6/mL
Viability (1.25 microM, D 1): 94.24%
qP (1.25 microM, D 1): 38.41 pg/c/d
Titer (1.25 microM, D 2): 0.64 g/L
VCD (1.25 microM, D 2): 11.25 e6/mL
Viability (1.25 microM, D 2): 87.53%
qP (1.25 microM, D 2): 57.19 pg/c/d
Titer (1.25 microM, D 3): 0.86 g/L
VCD (1.25 microM, D 3): 14.06 e6/mL
Viability (1.25 microM, D 3): 84.29%
qP (1.25 microM, D 3): 61.40 pg/c/d
Titer (1.25 microM, D 4): 1.08 g/L
VCD (1.25 microM, D 4): 17.54 e6/mL
Viability (1.25 microM, D 4): 84.81%
qP (1.25 microM, D 4): 61.77 pg/c/d

CC1(C)C=CC2(CC1)c1cnccc1-c1cnc(Nc3ccc(N4CCNCC4)nn3)nc12 (stereo not drawn) [Compound K, 4,4-dimethyl-N-(6-(piperazin-1-yl)pyridazin-3-yl)spiro[cyclohex[2]ene-1,9′-pyrido[4′,3′:3,4]cyclopenta[1,2-d]pyrimidin]-2′-amine]
Titer (1.25 microM, D 1): 0.48 g/L
VCD (1.25 microM, D 1): 11.87 e6/mL
Viability (1.25 microM, D 1): 95.72%
qP (1.25 microM, D 1): 40.15 pg/c/d
Titer (1.25 microM, D 2): 0.72 g/L
VCD (1.25 microM, D 2): 13.04 e6/mL
Viability (1.25 microM, D 2): 92.13%
qP (1.25 microM, D 2): 54.94 pg/c/d
Titer (1.25 microM, D 3): 1.01 g/L
VCD (1.25 microM, D 3): 16.39 e6/mL
Viability (1.25 microM, D 3): 90.36%
qP (1.25 microM, D 3): 61.61 pg/c/d
Titer (1.25 microM, D 4): 1.07 g/L
VCD (1.25 microM, D 4): 22.55 e6/mL
Viability (1.25 microM, D 4): 91.21%
qP (1.25 microM, D 4): 47.60 pg/c/d
Titer (2.5 microM, D 1): 0.48 g/L
VCD (2.5 microM, D 1): 11.77 e6/mL
Viability (2.5 microM, D 1): 96.38%
qP (2.5 microM, D 1): 40.78 pg/c/d
Titer (2.5 microM, D 2): 0.72 g/L
VCD (2.5 microM, D 2): 12.07 e6/mL
Viability (2.5 microM, D 2): 90.97%
qP (2.5 microM, D 2): 59.38 pg/c/d
Titer (2.5 microM, D 3): 1.05 g/L
VCD (2.5 microM, D 3): 15.31 e6/mL
Viability (2.5 microM, D 3): 89.25%
qP (2.5 microM, D 3): 68.37 pg/c/d
Titer (2.5 microM, D 4): 1.22 g/L
VCD (2.5 microM, D 4): 21.06 e6/mL
Viability (2.5 microM, D 4): 89.80%
qP (2.5 microM, D 4): 58.10 pg/c/d
